Values after ≈ are worked out from the molar mass of the structure shown. Where a SMILES comes first, the peptide text is derived from it. The star is where a group is joined. Octanoyl = CCCCCCCC(=O)*

The conditions of data set [1]: 18 h.
The nature of data set [2]: RP-HPLC adjusted retention time as measure of hydrophobicity. It counts as physicochemical. The note with it: chromatographic, Phenomenex Gemini-NX C18 4.6 × 150 mm, linear gradient 10–100% B (0.1% TFA in ACN) in A (0.1% aqueous TFA) over 10 min, 25 °C, 0.5 mL/min, UV 214 nm; used as hydrophobicity measure. From the text:
The identity of the purified peptides was confirmed using electrospray ionization mass spectrometry (ESI-MS) in positive ion mode and the results are shown in Table S1 (Supplementary Materials).
The conjugation of KR12-NH2 with aliphatic and aromatic acids affords more hydrophobic compounds than the parent molecule, but it depends on the modified amino group involved. The conjugation of C8 to N^α amino group of the N-terminal amino acid gives a more distinct increase in hydrophobicity than that of C8 in the sidechain of lysine residues (i.e., II vs. III; IV vs. V). […] Moreover, in the acidic conditions of the mobile phase (0.1% TFA; pH 2,) both amino groups are protonated. Hypothetically, the acylation of the N^α-amino group disrupts the helix macrodipole and eliminates excessive positive charge. The dipole moment and positive charge can obviously contribute to peptide hydrophilicity. This phenomenon applies exclusively to the N^α-amino group, but not so much to N^ε. […]
Finally, the peptides were purified with solid-phase extraction (SPE) on Isolute ^TM SPE columns (flash, C18, 25 mL). The eluates were fractionated, and the purity of the peptides was determined on a Varian ProStar HPLC system controlled by a Galaxie Chromatography Data System with a Phenomenex Gemini-NX C18 column (4.6 × 150 mm, 110 Å pore size, 5 µm particle size). […]

Data set [3] deals with Enterococcus faecium ATCC 700221. The class given is cell-based. The conditions noted are these: ATCC 700221, 18 h. In outline:
(§1)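 Using Mueller–Hinton broth and an inoculum checked at 600 nm (0.5 × 10^5 CFU/mL), bacteria faced peptide dilutions from 1 to 512 µg/mL for 18 h at 37 °C. Lowest concentration without visible growth defined the MIC, measured in triplicate alongside growth and sterility controls.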

Data set [4] concerns Klebsiella pneumoniae ATCC 700603. The class given is cell-based. The note with it: ATCC 700603, 18 h. In outline: as §1
The subject of data set [5] is Klebsiella aerogenes ATCC 13048. The class given is cell-based. The conditions noted are these: ATCC 13048, 18 h. The method, boiled down: as §1
Data set [6] concerns Pseudomonas aeruginosa ATCC 9027. It counts as cell-based. The note with it: ATCC 9027, 18 h. In outline:
as §1

In data set [7] the test system is reference strains of Staphylococcus aureus. Kind of data set: MIC over the five reference strains of S. aureus (geometric mean, range, selectivity). The class given is cell-based. The conditions noted are these: MIC values of Table 3. As to the method: Selectivity indexes were calculated based on the MHC5 and geometric mean (GM) of MIC values against S. aureus strains.
Tests of the antibacterial activity were carried out as we just described. Briefly, for assays, the following strains of ESKAPE bacteria were chosen: Acinetobacter baumannii ATCC BAA-1605, Enterococcus faecium ATCC 700221, Klebsiella aerogenes ATCC 13048 (formerly Enterobacter aerogenes), Klebsiella pneumoniae ATCC 700603, and Pseudomonas aeruginosa ATCC 9027. Moreover, the reference strains of Staphylococcus aureus were used: S. aureus ATCC 25923, S. aureus ATCC 6538, S. aureus ATCC 33591 (MRSA), S. aureus ATCC 9144, and S. aureus ATCC 12598. Before experiments, all the strains were stored at −80 °C in Roti®-Store cryo vials (Carl Roth GmbH, Karlsruhe, Germany). To evaluate the activity of the compounds, bacteria were transferred into fresh Mueller–Hinton medium (Becton Dickinson, Warszawa, Poland) and incubated for 24 h at 37 °C. In the next step, bacterial inoculums were seeded on Mueller–Hinton agar plates (BioMaxima SA, Lublin, Poland) and incubated again for 24 h. The MIC values were determined using the broth microdilution method according to the Clinical and Laboratory Standards Institute Protocol. […] The results were read after incubation for 18 h at 37 °C. […]

For data set [8], the system named is S. aureus ATCC 12598. It counts as cell-based, Staphylococcus aureus. The note with it: ATCC 12598, 18 h. The method, boiled down:
as §1

In data set [9] the test system is S. aureus ATCC 25923. It counts as cell-based, Staphylococcus aureus. The note with it: ATCC 25923, 18 h. The method, boiled down:
as §1

For data set [10], the system named is S. aureus ATCC 9144. The class given is cell-based, Staphylococcus aureus. The note with it: ATCC 9144, 18 h. In outline:
as §1

Data set [11] relates to S. aureus ATCC 6538. The class given is cell-based, Staphylococcus aureus. The conditions noted are these: ATCC 6538, 18 h. In outline:
as §1

The test system of data set [12] is S. aureus ATCC 33591 (MRSA). It counts as cell-based, Staphylococcus aureus. The conditions noted are these: ATCC 33591, 18 h. In outline: as §1

Take `CCCCCCCC(=O)NCCCC[C@H](NC(=O)[C@H](CCCNC(=N)N)NC(=O)[C@@H](NC(=O)[C@@H](NC(=O)[C@H](CCC(N)=O)NC(=O)[C@H](CCCNC(=N)N)NC(=O)[C@@H](NC(=O)[C@H](CCCCN)NC(=O)[C@H](CC(=O)O)NC(=O)[C@H](Cc1ccccc1)NC(=O)[C@H](CC(C)C)NC(=O)[C@@H](N)CCCNC(=N)N)[C@@H](C)CC)C(C)C)[C@@H](C)CC)C(N)=O` [XI, retro-KR12-C8^ε-NH2] (H-RLFDKIRQVIRK(Octanoyl)-NH2): the “MIC A. baumannii” value in [1] was 64 µg/mL (≈ 37.7 µM). Moreover, in data set [2], the “HPLC tR (adjusted retention time, t'R)” value worked out at 5.05 min. Also, the “MIC E. faecium” value in [3] is on record as 32 µg/mL (≈ 18.9 µM). Moreover, in data set [4], the “MIC K. pneumoniae” value was 512 µg/mL (≈ 302 µM). Besides, the “MIC K. aerogenes” value in data set [5] is reported as 512 µg/mL (≈ 302 µM). Further, the “MIC P. aeruginosa” value in data set [6] is reported as 128 µg/mL (≈ 75.4 µM). Besides, in [7], the “GM (geometric mean of the MIC values against S. aureus)” value was determined as 168.9. In addition, in [8], the “MIC S. aureus 12598” value was determined as 512 µg/mL (≈ 302 µM). The “MIC S. aureus 25923” value in data set [9] is reported as 128 µg/mL (≈ 75.4 µM). Also, the “MIC S. aureus 9144” value in data set [10] was 256 µg/mL (≈ 151 µM). For the same molecule, the “MIC S. aureus 6538” value in data set [11] is 16 µg/mL (≈ 9.43 µM). Moreover, in data set [12], the “MIC S. aureus 33591” value worked out at 512 µg/mL (≈ 302 µM).

Values taken from PMC10053710, “Influence of Lipidation Pattern of the KR12 Fragment of Peptide LL-37 on Its Antibacterial and Hemolytic Activities” (International Journal of Molecular Sciences, 2023).
